According to patent US10981926B2 (Janssen Pharmaceutica NV, priority 2016, dated 2021):

Key:
[1] = molecular target: T1, wild-type Androgen Receptor (AR-wt) (Homo sapiens (Human), UniProt P10275); assay: LNCaP-AR-wt ANT reporter assay (antagonist mode); assay type: cell-based; details: for IC50: read-out: LNCaP-AR-wt ANT pIC50 (converted); for Emax: maximum % inhibition of R1881 control response over the tested concentration range, read-out: LNCaP-AR-wt ANT MAX % Inh
[2] = molecular target: T1, wild-type Androgen Receptor (AR-wt); assay: LNCaP-AR-wt AG reporter assay (agonist mode); assay type: cell-based; details: for EC50: agonist mode, pEC50 = −Log10(EC50 in Molar), read-out: LNCaP-AR-wt AG pEC50 (converted); for Emax: maximum % stimulation (agonist response) over the tested concentration range, read-out: LNCaP-AR-wt AG MAX % Stim
[3] = molecular target: T2, F876L mutant Androgen Receptor (AR-F876L) (Homo sapiens (Human), UniProt P10275, F877L); assay: LNCaP-AR-F876L ANT reporter assay (antagonist mode); assay type: cell-based; details: for IC50: read-out: LNCaP-AR-F876L ANT pIC50 (converted); for Emax: maximum % inhibition of R1881 control response over the tested concentration range, read-out: LNCaP-AR-F876L ANT MAX % Inh
T2 sequence (P10275 whole entry F877L): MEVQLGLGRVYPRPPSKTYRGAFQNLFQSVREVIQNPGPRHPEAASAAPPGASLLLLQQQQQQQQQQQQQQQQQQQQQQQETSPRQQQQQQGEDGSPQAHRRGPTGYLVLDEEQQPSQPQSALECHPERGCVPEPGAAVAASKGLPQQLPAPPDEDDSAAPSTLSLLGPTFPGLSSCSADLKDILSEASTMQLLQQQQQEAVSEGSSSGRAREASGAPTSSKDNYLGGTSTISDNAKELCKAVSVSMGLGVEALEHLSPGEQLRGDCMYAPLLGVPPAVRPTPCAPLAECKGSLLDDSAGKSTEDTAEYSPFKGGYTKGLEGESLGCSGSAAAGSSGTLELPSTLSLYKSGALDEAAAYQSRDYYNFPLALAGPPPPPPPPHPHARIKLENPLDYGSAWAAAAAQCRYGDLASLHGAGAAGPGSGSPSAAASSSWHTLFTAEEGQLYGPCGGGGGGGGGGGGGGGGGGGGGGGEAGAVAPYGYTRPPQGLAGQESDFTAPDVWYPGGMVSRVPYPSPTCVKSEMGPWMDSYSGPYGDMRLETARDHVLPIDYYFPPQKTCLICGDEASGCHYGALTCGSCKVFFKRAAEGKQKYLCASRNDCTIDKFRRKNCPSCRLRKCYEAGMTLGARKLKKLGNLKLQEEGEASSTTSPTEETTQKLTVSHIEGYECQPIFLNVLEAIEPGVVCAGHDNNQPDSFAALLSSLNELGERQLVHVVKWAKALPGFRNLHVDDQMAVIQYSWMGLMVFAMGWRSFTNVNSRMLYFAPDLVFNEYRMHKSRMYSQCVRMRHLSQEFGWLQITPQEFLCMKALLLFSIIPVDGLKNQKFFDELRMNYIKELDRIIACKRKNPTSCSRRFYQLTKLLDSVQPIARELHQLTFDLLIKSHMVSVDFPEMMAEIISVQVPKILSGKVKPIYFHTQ

[4] = molecular target: T2, F876L mutant Androgen Receptor (AR-F876L); assay: LNCaP-AR-F876L AG reporter assay (agonist mode); assay type: cell-based; details: for EC50: agonist mode, pEC50 = −Log10(EC50 in Molar), read-out: LNCaP-AR-F876L AG pEC50 (converted); for Emax: maximum % stimulation (agonist response) over the tested concentration range, read-out: LNCaP-AR-F876L AG MAX % Stim
rGABA-gated Cl− channel = assay: GABA-Gated Cl Channel Antagonist Radioligand Binding Assay; design: species or system rat; details: 10 μM single point, [35S]-TBPS, cerebral cortex membrane homogenates
Procedure, shortened: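 Values give percent inhibition of control specific […] (3 nM) binding at a single 10 μM compound concentration. Cerebral cortex membranes, 120 min, 22° C, phosphate buffer pH 7.4 with 500 mM NaCl; 20 μM picrotoxinin sets nonspecific binding; filtration and scintillation read-out.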

[5] = antagonist mode, pIC50 = −Log10(IC50 in Molar)

T1 sequence (P10275 whole entry): as the sequence (P10275 whole entry F877L) above, with L877F counted along it

| IC50 [1, 5] [µM] | Emax [1] [%] | EC50 [2] [µM] | Emax [2] [%] | IC50 [3, 5] [µM] | Emax [3] [%] | EC50 [4] [µM] | Emax [4] [%] | rGABA-gated Cl− channel % inh @10 μM (rGABA-gated Cl− channel) [%] | LNCaP-AR-wt ANT pIC50 [1, 5] | LNCaP-AR-F876L ANT pIC50 [3, 5] | SMILES |
| --- | --- | --- | --- | --- | --- | --- | --- | --- | --- | --- | --- |
| 0.229 | 102 | > 15.1 | -0.2 | 0.129 | 99 | > 15.1 | 0.2 | 20.5 |  |  | N#Cc1ncc(N2C(=O)C3(CCC3)N(c3ccc(OCCN4CC5(C4)CC(F)(F)C5)cc3)C2=S)cc1C(F)(F)F [Cpd 83, 5-[8-[4-[2-(2,2-difluoro-6-azaspiro[3.3]heptan-6-yl)ethoxy]phenyl]-5-oxo-7-thioxo-6,8-diazaspiro[3.4]octan-6-yl]-3-(trifluoromethyl)pyridine-2-carbonitrile] |
| 0.525 | 101 | > 15.1 | 0.2 | 0.0813 | 101 | > 15.1 | 0.1 | 21.9 |  |  | CN1CC(Oc2ccc(N3C(=S)N(c4cnc(C#N)c(C(F)(F)F)c4)C(=O)C34CCC4)cc2)C1 [Cpd 84, 5-[8-[4-(1-methylazetidin-3-yl)oxyphenyl]-5-oxo-7-thioxo-6,8-diazaspiro[3.4]octan-6-yl]-3-(trifluoromethyl)pyridine-2-carbonitrile] |
| 0.123 | 100 | > 15.1 | 0 | 0.0759 | 99.7 | > 15.1 | 0.1 | 15.3 |  |  | N#Cc1ncc(N2C(=O)C3(CCC3)N(c3ccc(OC4CC5(CNC5)C4)cc3)C2=S)cc1C(F)(F)F [Cpd 86, 5-[8-[4-(6-azaspiro[3.3]heptan-2-yloxy)phenyl]-5-oxo-7-thioxo-6,8-diazaspiro[3.4]octan-6-yl]-3-(trifluoromethyl)pyridine-2-carbonitrile] |
|  | 101 | > 15.1 | 0.1 |  | 100 | > 15.1 | 0.1 | −14.8 | 6.92 | 7.09 | Cc1cc(N2C(=O)C3(CCC3)N(c3ccc(OC4CCNCC4)nc3)C2=S)cnc1C#N [Cpd 87, 3-methyl-5-[5-oxo-8-[6-(4-piperidyloxy)-3-pyridyl]-7-thioxo-6,8-diazaspiro[3.4]octan-6-yl]pyridine-2-carbonitrile] |
| 0.0741 | 102 | > 15.1 | 0.4 | 0.0331 | 99.5 | > 15.1 | 0.4 | 49.7 |  |  | C=CCN1CCC(Oc2ccc(N3C(=S)N(c4cnc(C#N)c(C(F)(F)F)c4)C(=O)C34CCC4)cn2)CC1 [Cpd 88, 5-[8-[6-[(1-allyl-4-piperidyl)oxy]-3-pyridyl]-5-oxo-7-thioxo-6,8-diazaspiro[3.4]octan-6-yl]-3-(trifluoromethyl)pyridine-2-carbonitrile] |
| 0.0891 | 99.7 | > 15.1 | 0.6 | 0.0676 | 99.3 | > 15.1 | 0.9 | 20.8 |  |  | Cc1cc(N2C(=O)C3(CCC3)N(c3ccc(OC4CCN(CC#N)CC4)nc3)C2=S)cnc1C#N [Cpd 90, 5-[8-[6-[[1-(cyanomethyl)-4-piperidyl]oxy]-3-pyridyl]-5-oxo-7-thioxo-6,8-diazaspiro[3.4]octan-6-yl]-3-methyl-pyridine-2-carbonitrile] |
